Assay results taken from the supplement of paper PMC10627819.

Columns and labels:
Experiment in all cases: fitness (endpoint OD595 vs no drug) (fraction); higher = more growth
S. aureus DSM 20231 = tested on: S. aureus DSM 20231
In short: (§1)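 Fitness expresses the optical density reached at the stationary-phase transition as a fraction of the robust mean of no-drug control wells. It is capped at 1. Measurements were OD595 every 30 min for 14 h at 37 °C after inoculation of 384-well plates at OD595 0.01 (30 µl, or 55 µl for S. pneumoniae), minus the first reading.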

S. aureus Newman = tested on: S. aureus Newman
In short: as §1

B. subtilis 168 = tested on: B. subtilis 168
In short: as §1

S. pneumoniae D39V = tested on: S. pneumoniae D39V
In short: as §1
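Also: OD595 on entry to stationary phase over no-drug wells; at most 1.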

O=C(N[C@H](CO)[C@H](O)c1ccc([N+](=O)[O-])cc1)C(Cl)Cl [Chloramphenicol] + CN(C)[C@@H]1C(O)=C(C(N)=O)C(=O)[C@@]2(O)C(O)=C3C(=O)c4c(O)ccc(Cl)c4[C@@](C)(O)[C@H]3C[C@@H]12 [Chlortetracycline]
S. aureus DSM 20231, partner 0.006 µg/mL, one replicate
Details | fitness
first compound 0.75 µg/mL | 0.62
first compound 1.5 µg/mL | 0.558

fitness, S. aureus DSM 20231
Details | first compound 0.75 µg/mL | first compound 1.5 µg/mL | first compound 3 µg/mL
partner 0.012 µg/mL | 0.476 | – | 0.0949
partner 0.024 µg/mL | 0.288 | – | 0.0799
partner 0.048 µg/mL | – | 0.127 | 0.0661

O=C(N[C@H](CO)[C@H](O)c1ccc([N+](=O)[O-])cc1)C(Cl)Cl [Chloramphenicol] + CO/N=C(\C(=O)N[C@@H]1C(=O)N2C(C(=O)O)=C(COC(C)=O)CS[C@H]12)c1csc(N)n1 [Cefotaxime]
fitness
Details | first compound 0.75 µg/mL | first compound 1.5 µg/mL | first compound 3 µg/mL
S. aureus DSM 20231, partner 0.039 µg/mL | 0.649 | 0.629 | 0.137
S. aureus DSM 20231, partner 0.078 µg/mL | 0.672 | 0.618 | 0.191
S. aureus DSM 20231, partner 0.156 µg/mL | 0.641 | 0.599 | 0.194
S. aureus Newman, partner 0.078 µg/mL | 0.534 | 0.321 | 0.136
S. aureus Newman, partner 0.156 µg/mL | 0.406 | 0.206 | 0.0948
S. aureus Newman, partner 0.312 µg/mL | 0.198 | 0.0711 | 0.065

fitness, one replicate
Details | first compound 0.75 µg/mL | first compound 1.5 µg/mL | first compound 3 µg/mL
S. aureus DSM 20231, partner 0.312 µg/mL | 0.607 | 0.586 | 0.227
S. aureus Newman, partner 0.625 µg/mL | 0.0565 | 0.0229 | 0.0195
S. aureus Newman, partner 1.25 µg/mL | 0.0337 | 0.0237 | 0.0515
S. aureus Newman, partner 2.5 µg/mL | 0.0674 | 0.0266 | 0.0651

O=C(N[C@H](CO)[C@H](O)c1ccc([N+](=O)[O-])cc1)C(Cl)Cl [Chloramphenicol] + CO/N=C(\C(=O)N[C@@H]1C(=O)N2C(C(=O)[O-])=C(C[N+]3(C)CCCC3)CS[C@H]12)c1csc(N)n1 [Cefepime]
fitness
Details | partner 0.125 µg/mL | partner 0.25 µg/mL | partner 0.5 µg/mL
S. aureus DSM 20231, first compound 0.75 µg/mL | 0.749 | 0.83 | 0.811
S. aureus DSM 20231, first compound 1.5 µg/mL | 0.661 | 0.699 | 0.645
S. aureus DSM 20231, first compound 3 µg/mL | 0.19 | 0.22 | 0.233
S. aureus Newman, first compound 0.75 µg/mL | 0.756 | 0.685 | 0.611
S. aureus Newman, first compound 3 µg/mL | – | 0.275 | 0.234

O=C(N[C@H](CO)[C@H](O)c1ccc([N+](=O)[O-])cc1)C(Cl)Cl [Chloramphenicol] + CO[C@@]12[C@H](COC(N)=O)C3=C(C(=O)C(C)=C(N)C3=O)N1C[C@@H]1N[C@@H]12 [Mitomycin C]
fitness
Details | first compound 0.75 µg/mL | first compound 1.5 µg/mL | first compound 3 µg/mL
S. aureus DSM 20231, partner 0.0156 µg/mL | 0.598 | 0.431 | 0.0667
S. aureus DSM 20231, partner 0.0312 µg/mL | 0.572 | 0.367 | 0.0823
S. aureus DSM 20231, partner 0.0625 µg/mL | 0.453 | 0.245 | 0.0494
S. aureus Newman, partner 0.0156 µg/mL | 0.577 | 0.442 | 0.259
S. aureus Newman, partner 0.0312 µg/mL | 0.537 | 0.363 | 0.144
S. aureus Newman, partner 0.0625 µg/mL | 0.399 | 0.3 | 0.0938

O=C(N[C@H](CO)[C@H](O)c1ccc([N+](=O)[O-])cc1)C(Cl)Cl [Chloramphenicol] + N[C@@H]1CONC1=O [Cycloserine D]
fitness
Details | partner 0.375 µg/mL | partner 0.75 µg/mL | partner 1.5 µg/mL
S. aureus DSM 20231, first compound 0.75 µg/mL | 0.642 | 0.662 | 0.66
S. aureus DSM 20231, first compound 3 µg/mL | 0.0914 | 0.0972 | 0.0952
S. aureus Newman, first compound 0.75 µg/mL | 0.813 | 0.824 | 0.801
S. aureus Newman, first compound 1.5 µg/mL | 0.573 | 0.542 | 0.571
S. aureus Newman, first compound 3 µg/mL | 0.201 | 0.164 | 0.165

CCC[C@@H]1C[C@@H](C(=O)N[C@@H]([C@H]2O[C@H](SC)[C@H](O)[C@@H](O)[C@H]2O)[C@H](C)Cl)N(C)C1 [Clindamycin] + CC1=C(C(=O)O)N2C(=O)[C@@H](NC(=O)[C@H](N)c3ccccc3)[C@H]2SC1 [Cephalexin]
fitness, one replicate
Details | first compound 0.0039 µg/mL | first compound 0.0078 µg/mL | first compound 0.015 µg/mL | first compound 0.0156 µg/mL | first compound 0.03 µg/mL | first compound 0.06 µg/mL
B. subtilis 168, partner 0.25 µg/mL | ≥ 1 | 0.863 | – | 0.839 | – | –
B. subtilis 168, partner 0.5 µg/mL | 0.984 | 0.844 | – | 0.868 | – | –
B. subtilis 168, partner 1 µg/mL | 0.96 | 0.886 | – | 0.883 | – | –
S. pneumoniae D39V, partner 0.125 µg/mL | – | – | 0.898 | – | 0.751 | 0.642
S. pneumoniae D39V, partner 0.25 µg/mL | – | – | 0.87 | – | 0.799 | 0.667
S. pneumoniae D39V, partner 0.5 µg/mL | – | – | 0.899 | – | 0.836 | 0.645

Details | fitness
B. subtilis 168, first compound 0.0625 µg/mL, partner 0.125 µg/mL | 0.556
B. subtilis 168, first compound 0.0625 µg/mL, partner 0.25 µg/mL | 0.465
B. subtilis 168, first compound 0.0625 µg/mL, partner 0.5 µg/mL | 0.482
B. subtilis 168, first compound 0.125 µg/mL, partner 0.125 µg/mL | 0.376
B. subtilis 168, first compound 0.125 µg/mL, partner 0.25 µg/mL | 0.344
B. subtilis 168, first compound 0.125 µg/mL, partner 0.5 µg/mL | 0.348
B. subtilis 168, first compound 0.25 µg/mL, partner 0.125 µg/mL | 0.351
B. subtilis 168, first compound 0.25 µg/mL, partner 0.25 µg/mL | 0.335
B. subtilis 168, first compound 0.25 µg/mL, partner 0.5 µg/mL | 0.34
S. aureus Newman, first compound 0.0312 µg/mL, partner 0.5 µg/mL | 0.795
S. aureus Newman, first compound 0.0312 µg/mL, partner 1 µg/mL | 0.82
S. pneumoniae D39V, first compound 0.0125 µg/mL, partner 1 µg/mL | 0.733
S. pneumoniae D39V, first compound 0.0125 µg/mL, partner 2 µg/mL | 0.453
S. pneumoniae D39V, first compound 0.0125 µg/mL, partner 4 µg/mL | 0.0549
S. pneumoniae D39V, first compound 0.025 µg/mL, partner 1 µg/mL | 0.519
S. pneumoniae D39V, first compound 0.025 µg/mL, partner 2 µg/mL | 0.294
S. pneumoniae D39V, first compound 0.025 µg/mL, partner 4 µg/mL | 0.0703
S. pneumoniae D39V, first compound 0.05 µg/mL, partner 1 µg/mL | 0.179
S. pneumoniae D39V, first compound 0.05 µg/mL, partner 2 µg/mL | 0.114
S. pneumoniae D39V, first compound 0.05 µg/mL, partner 4 µg/mL | 0.0475
